Data reported in patent publication US20110136844A1, “METHODS FOR INHIBITING DYRK1A TO TREAT CENTRAL NERVOUS SYSTEM DISEASES AND DISORDERS” (MediProPharma, Inc., priority 2009, published 2011).
Marks after values point to notes of the source that are not given here.

What was measured:
[1] = Plasma pharmacokinetics after single dose in normal rats; format: in vivo, Sprague-Dawley rats; settings: rat plasma, i.v. 10 mg/kg
Description: (§1) (IV) Pharmacokinetic Studies
(§2) The pharmacokinetic studies in Sprague-Dawley rats were performed using the protocols developed by WuXi AppTec (St. Paul, Minn., USA, and Shanghai, China. http://www.apptecls.com/).

[2] = Brain-plasma pharmacokinetics after single 10 mg/kg bolus i.v. injection in normal rats; format: in vivo, Sprague-Dawley rats; settings: rat, 10 mg/kg i.v., the data is the value of AUC(inf)
Description: as §1, §2
The brain exposure of the compound of Example 1 is about […] higher than that required for inhibition of DYRK1A, with a Kd and IC50 at about 1 uM, or 280 ng/mL.

- Co [1]: 4100 ng/mL
- AUC0-t of Plasma ([2]; time 8 h): 2350^b ng · h/mL
- AUC0-t of Plasma ([2]; time 24 h): 2350^b ng · h/mL
SMILES: Cc1nc2c(c3c1[nH]c1ccccc13)C(=O)CC(C)(C)C2 [Example 1, 3,3,6-trimethyl-2,3,4,7-tetrahydroindolo[2,3-c]quinolin-1-one]
